Tests used:
Format in all cases: in vivo
Viola tricolor [1] = assay: Post-emergence herbicidal action; conditions: 1280 g/ha, rated visually after about 3 weeks vs untreated controls
Outline: (§1)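 Visual % activity versus untreated controls (100% = plants died, 0% = like controls), scored about 3 weeks after a foliar spray. Greenhouse plants in sandy loam were treated at one-leaf stage with 1280 g/ha in aqueous spray containing 0.5% additive, 600 l/ha.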

Abutilon theophrasti [2] = assay: Pre-emergence herbicidal action; conditions: 1280 g/ha, scored visually after about 3 weeks vs untreated controls
Outline: (§2)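 Test compounds at 1280 g/ha are sprayed onto soil covering freshly sown seeds, using 600 l/ha water with 0.5% additive. Pots stay in the greenhouse about 3 weeks, then activity is rated visually in percent against untreated controls.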

Alopecurus myosuroides [3] = assay: Pre-emergence herbicidal action; conditions: 1280 g/ha, scored visually after about 3 weeks vs untreated controls
Outline: as §2

Amaranthus retroflexus [4] = assay: Pre-emergence herbicidal action; conditions: 1280 g/ha, scored visually after about 3 weeks vs untreated controls
Outline: as §2

Echinochloa crus-galli [5] = assay: Pre-emergence herbicidal action; conditions: 1280 g/ha, scored visually after about 3 weeks vs untreated controls
Outline: as §2

Matricaria inodora = assay: Pre-emergence herbicidal action; conditions: 1280 g/ha, scored visually after about 3 weeks vs untreated controls
Outline: as §2

Pharbitis purpurea [6] = assay: Pre-emergence herbicidal action; conditions: 1280 g/ha, scored visually after about 3 weeks vs untreated controls
Outline: as §2

Polygonum convolvulus [7] = assay: Pre-emergence herbicidal action; conditions: 1280 g/ha, scored visually after about 3 weeks vs untreated controls
Outline: as §2

Setaria viridis [8] = assay: Pre-emergence herbicidal action; conditions: 1280 g/ha, scored visually after about 3 weeks vs untreated controls
Outline: as §2

Stellaria media [9] = assay: Pre-emergence herbicidal action; conditions: 1280 g/ha, scored visually after about 3 weeks vs untreated controls
Outline: as §2

Viola tricolor [10] = assay: Pre-emergence herbicidal action; conditions: 1280 g/ha, scored visually after about 3 weeks vs untreated controls
Outline: as §2

Abutilon theophrasti [11] = assay: Post-emergence herbicidal action; conditions: 1280 g/ha, rated visually after about 3 weeks vs untreated controls
Outline: as §1

Alopecurus myosuroides [12] = assay: Post-emergence herbicidal action; conditions: 1280 g/ha, rated visually after about 3 weeks vs untreated controls
Outline: as §1

Amaranthus retroflexus [13] = assay: Post-emergence herbicidal action; conditions: 1280 g/ha, rated visually after about 3 weeks vs untreated controls
Outline: as §1

Polygonum convolvulus [14] = assay: Post-emergence herbicidal action; conditions: 1280 g/ha, rated visually after about 3 weeks vs untreated controls
Outline: as §1

Stellaria media [15] = assay: Post-emergence herbicidal action; conditions: 1280 g/ha, rated visually after about 3 weeks vs untreated controls
Outline: as §1

Avena fatua = assay: Pre-emergence herbicidal action; conditions: 1280 g/ha, scored visually after about 3 weeks vs untreated controls
Outline: as §2

Hordeum murinum = assay: Pre-emergence herbicidal action; conditions: 1280 g/ha, scored visually after about 3 weeks vs untreated controls
Outline: as §2

Lolium rigidum = assay: Pre-emergence herbicidal action; conditions: 1280 g/ha, scored visually after about 3 weeks vs untreated controls
Outline: as §2

Pharbitis purpurea [16] = assay: Post-emergence herbicidal action; conditions: 1280 g/ha, rated visually after about 3 weeks vs untreated controls
Outline: as §1

Setaria viridis [17] = assay: Post-emergence herbicidal action; conditions: 1280 g/ha, rated visually after about 3 weeks vs untreated controls
Outline: as §1

Veronica persica = assay: Post-emergence herbicidal action; conditions: 1280 g/ha, rated visually after about 3 weeks vs untreated controls
Outline: as §1

Echinochloa crus-galli [18] = assay: Post-emergence herbicidal action; conditions: 1280 g/ha, rated visually after about 3 weeks vs untreated controls
Outline: as §1

Row | Structure (SMILES) | herbicidal activity on Viola tricolor (Viola tricolor [1]) [%] | herbicidal activity on Abutilon theophrasti (Abutilon theophrasti [2]) [%] | herbicidal activity on Alopecurus myosuroides (Alopecurus myosuroides [3]) [%] | herbicidal activity on Amaranthus retroflexus (Amaranthus retroflexus [4]) [%] | herbicidal activity on Echinochloa crus-galli (Echinochloa crus-galli [5]) [%] | herbicidal activity on Matricaria inodora (Matricaria inodora) [%] | herbicidal activity on Pharbitis purpurea (Pharbitis purpurea [6]) [%] | herbicidal activity on Polygonum convolvulus (Polygonum convolvulus [7]) [%] | herbicidal activity on Setaria viridis (Setaria viridis [8]) [%] | herbicidal activity on Stellaria media (Stellaria media [9]) [%] | herbicidal activity on Viola tricolor (Viola tricolor [10]) [%] | herbicidal activity on Abutilon theophrasti (Abutilon theophrasti [11]) [%] | herbicidal activity on Alopecurus myosuroides (Alopecurus myosuroides [12]) [%] | herbicidal activity on Amaranthus retroflexus (Amaranthus retroflexus [13]) [%] | herbicidal activity on Polygonum convolvulus (Polygonum convolvulus [14]) [%] | herbicidal activity on Stellaria media (Stellaria media [15]) [%] | herbicidal activity on Avena fatua (Avena fatua) [%] | herbicidal activity on Hordeum murinum (Hordeum murinum) [%] | herbicidal activity on Lolium rigidum (Lolium rigidum) [%] | herbicidal activity on Veronica persica (Veronica persica) [%] | also measured
1 | CCn1cc(Sc2ccc(F)cc2)c(Oc2ncccn2)n1 [Example I-038] | 90 | 80 | 80 | 100 | 80 | 90 | 80 | 80 | 100 | 100 | 100 | – | – | – | – | – | – | – | – | – | –
2 | CCc1c(Sc2ccc(F)c(F)c2)c(Oc2ncccn2)nn1C [Example I-062] | 100 | 100 | 100 | 100 | 100 | 100 | 80 | 100 | 100 | 100 | 100 | 100 | 80 | 100 | 90 | 90 | 80 | 100 | 80 | – | –
3 | CCc1c(Sc2ccccc2)c(Oc2ncc(F)cn2)nn1C [Example I-155] | 100 | 100 | 100 | 100 | 90 | 100 | – | – | 100 | 100 | 100 | 80 | 90 | 100 | – | 90 | 100 | 100 | 80 | 100 | herbicidal activity on Pharbitis purpurea (Pharbitis purpurea [16]): 80%; herbicidal activity on Setaria viridis (Setaria viridis [17]): 80%
4 | CCc1c(Sc2ccc(F)cc2)c(Oc2ncc(F)cn2)nn1C [Example I-183] | 100 | 100 | 100 | 100 | 100 | 100 | – | 100 | 100 | 100 | 100 | 90 | 90 | 100 | 90 | 90 | – | 100 | 100 | 90 | herbicidal activity on Echinochloa crus-galli (Echinochloa crus-galli [18]): 90%; herbicidal activity on Pharbitis purpurea (Pharbitis purpurea [16]): 100%; herbicidal activity on Setaria viridis (Setaria viridis [17]): 100%
5 | CCc1c(Sc2ccc(F)cc2F)c(Oc2ncccn2)nn1C [Example I-136] | 100 | 100 | 100 | 100 | 90 | 100 | – | 100 | 100 | 100 | 100 | 90 | – | 100 | – | 90 | 90 | – | 100 | 100 | –

— patent publication US20200181117A1, “SUBSTITUTED 3-HETEROARYLOXY-1H-PYRAZOLES AND SALTS THEREOF AND THEIR USE AS HERBICIDAL ACTIVE SUBSTANCES” (BAYER CROPSCIENCE AKTIENGESELLSCHAFT, priority 2017, published 2020)
